Source: US12589169B2, “Compound and MRI contrast agent containing same” (KYUNGPOOK NATIONAL UNIVERSITY INDUSTRY-ACADEMIC COOPERATION …, priority 2020, dated 2026)

What was measured:
[1] = magnetic relaxation rates (MRI contrast effect); assay type: physicochemical; settings: magnetic relaxation rate; field strength not stated for Table 1
Method: In order to examine the MRI contrast effects of the compounds (Gd-suc, Gd-glu) and commercially available MRI contrast agents according to Examples of the present invention, the magnetic relaxation rates and lipophilicity were analyzed, and the results are shown in Table 1 below.
The magnetic relaxation rate (mM^−ls^−1) is a parameter indicating contrast efficiency per unit concentration, and in the case of a T1 contrast agent, the r2/r1 ratio is known to have a value of 0.5 to 1.5.

AML12 cell line = test: in vitro cell-viability test (CCK method); assay type: cell-based; settings: AML12 normal hepatocytes, 24 hours; FIG. 16
Method: In order to confirm the presence or absence of cytotoxicity in normal hepatocytes, Gd-suc (i.e., a compound according to an embodiment of the present invention) and Primovist and Multihance (i.e., commercially available liver contrast agents) were treated on the AML12 cell line at various concentrations, and cell viability after 24 hours was analyzed by a known CCK method, and the results are shown in FIG. 16.

Balb/C mice = test: in vivo MRI contrast effect (abdominal T1 weighted images); settings: 0.1 mmol/kg, 4.7 T, FIG. 14
Method: The liver-specific T1 contrast effect of the compounds (Gd-suc, Gd-glu) according to embodiments of the present invention and Primovist, a commercially available liver contrast agent, was evaluated in small animals (Balb/C mice, male, 5 w, 25 g, 0.1 mmol/kg) and confirmed through abdominal T1 weighted images (Bruker, 4.7 T), and the results are shown in FIGS. 12 to 15.

| r1 [1] | r2 [1] | SMILES | cytotoxicity (AML12 cell line) | contrast enhancing effect in the gall bladder (Balb/C mice) |
| --- | --- | --- | --- | --- |
| 4.19 ± 0.014 mM^−ls^−1 | 4.75 ± 0.016 mM^−ls^−1 | CNC[C@H](O)[C@@H](O)[C@H](O)[C@H](O)CO.O=C([O-])CN1CCN(CC(=O)[O-])CCN(CC(=O)O)CCN(CC(=O)[O-])CC1.[Gd+3] [Dotarem, Gd-DOTA] | – | – |
| 4.12 ± 0.028 mM^−ls^−1 | 4.60 ± 0.025 mM^−ls^−1 | O=C([O-])CN1CCN(CC(=O)[O-])CCN([C@H](CO)[C@H](O)CO)CCN(CC(=O)[O-])CC1.[Gd+3] (racemic) [Gadovist] | – | – |
| 6.51 ± 0.040 mM^−ls^−1 | 7.31 ± 0.42 mM^−ls^−1 | CCOc1ccc(CC(CN(CCN(CC(=O)[O-])CC(=O)[O-])CC(=O)[O-])N(CC(=O)[O-])CC(=O)[O-])cc1.[Gd+3].[Na+].[Na+] (stereo not shown) [Primovist] | significant cytotoxicity | – |

Continued, molecule first:

| SMILES | r1 [1] | r2 [1] | cytotoxicity (AML12 cell line) | contrast enhancing effect in the gall bladder (Balb/C mice) |
| --- | --- | --- | --- | --- |
| CNC[C@H](O)[C@@H](O)[C@H](O)[C@H](O)CO.CNC[C@H](O)[C@@H](O)[C@H](O)[C@H](O)CO.O=C([O-])CN(CCN(CC(=O)[O-])CC(=O)O)CCN(CC(=O)O)C(COCc1ccccc1)C(=O)[O-].[Gd+3] (stereo not shown) [Multihance] | 5.09 ± 0.015 mM^−ls^−1 | 6.79 ± 0.38 mM^−ls^−1 | significant cytotoxicity | – |
| CCOc1ccc(CN2CCN(CC(=O)[O-])CCN(C(CCC(=O)[O-])C(=O)[O-])CCN(CC(=O)[O-])CC2)cc1.[Gd+3] (stereo not shown) [Gd-glu] | 8.41 ± 0.084 mM^−ls^−1 | 9.92 ± 0.081 mM^−ls^−1 | – | exhibited a contrast enhancing effect in the gall bladder |
| CC(O)CN1CCN(CC(=O)[O-])CCN(CC(=O)[O-])CCN(CC(=O)[O-])CC1.[Gd+3] (stereo not shown) [Prohance] | 3.58 ± 0.017 mM^−ls^−1 | 4.58 ± 0.071 mM^−ls^−1 | – | – |
| CNC(=O)CN(CCN(CCN(CC(=O)[O-])CC(=O)NC)CC(=O)[O-])CC(=O)[O-].[Gd+3] [Omniscan] | 3.58 ± 0.014 mM^−ls^−1 | 4.46 ± 0.024 mM^−ls^−1 | – | – |
| CNC[C@H](O)[C@@H](O)[C@H](O)[C@H](O)CO.CNC[C@H](O)[C@@H](O)[C@H](O)[C@H](O)CO.O=C([O-])CN(CCN(CC(=O)[O-])CC(=O)O)CCN(CC(=O)[O-])CC(=O)O.[Gd+3] [Magnevist] | 3.57 ± 0.007 mM^−ls^−1 | 4.95 ± 0.18 mM^−ls^−1 | – | – |
